Experimental data: patent US20120035079A1, “GENOTOXICITY TESTING” (priority 2009, published 2012)
Read-outs that look alike come from different tables or passages of the source.

Assays:
[1] = system: human GADD45α gene promoter and regulatory element linked to Gaussia luciferase (GD532-GLuc) in TK6 cells; experiment: GLuc genotoxicity assay: GLuc-T01 cells (TK6 with pEP-GD532-GLuc), 48 hour endpoint, without S9
Description: The assay has the following steps, as further described below: (1) preparing a microplate for use in an assay; (2) conducting the assay in the microplates; (3) collecting and analysing the data; and (4) making a judgment on genome damage and the consequences.
The assay is performed using a microplate reader capable of luminescence and absorbance readings, equipped with injectors capable of single well additions.
Using the standard dilution protocol described here, all concentrations are halved in the microplate well when a sample volume of 75 μl is combined with 75 μl of cell culture. All standard and test chemicals and reagents should be prepared fresh shortly before the assay is performed.
An initial concentration of 2 mM or 1 mg/ml (whichever is lowest) is recommended (equating to 1 mM or 500 μg/ml of test compound on the microplate). It is desirable that the test compound is fully soluble at the top concentration tested. A minimum of 250 μl of each test compound is required per plate. […] If the compound precipitates from solution when the DMSO standard is added to water, the original DMSO stock standard can be diluted further with 100% DMSO. The 20 μl+980 μl water dilution step is then repeated to produce a fresh test standard.
Standard cell culture methods are used to prepare GLuc-TO1 cells for use in the assay. […] Cells are grown in routine culture medium:
The following standard protocol may be followed. […] To achieve this, 150 microlitres of the test chemical solution are put into a microplate well. […] This produces 9 serial dilutions of 75 microlitres each.
75 μl of GLuc-T01 cells in Assay Medium (GS-HC-AM) as described above are then added to each well as appropriate.
The following controls are included in the microplate: • a. Blank well. • b. Test compound/sample alone. • c. Assay medium alone. • d. Control compound with cells.
Once finished, the microplates are covered with a breathable membrane. […] Plates should be incubated and analysed after 48 hours +/−2 hours.
Plates are first read for absorbance in each well, at a wavelength of ˜620 nm. […] An example of a suitable reader and injector system is a Tecan Infinite F500
Following the 48 hour incubation, luminescence and absorbance data are collected from the microplates. A microplate reader combining luminescence and absorbance functionality is used; by way of example, this reader may be a Tecan Infinite F500 (Tecan UK Ltd.). Luminescence data are collected with an integration time of 3 seconds after injection of the substrate and shaking of the microplate (within the reader). Optical absorbance is measured through a 600 nm or 620 nm filter. These luminescence and absorbance data are transported into a Microsoft Excel spreadsheet, and converted to graphical data. […] Luminescence data are divided by absorbance data to give ‘brightness units’, the measure of average GLuc induction per cell. […] In this way, one can distinguish between a small number of highly luminescent cells and a large number of weakly luminescent cells. The decision (see below), on whether or not a compound is classified as being genotoxic is generated automatically within the software.
The cytotoxicity threshold is set at 80% of the cell density reached by the untreated control cells.
Anomalous brightness data is generated when the toxicity leads to a final cell density less than 30% that of the blank. Genotoxicity data is not calculated above this toxicity threshold.
A series of genotoxicity assays were performed using a TK6 cell line having the GD532-GLuc expression cassette (a “GLuc assay”). The assays were performed using the experimental protocol provided in a later example.

[2] = system: GADD45α-FLuc expression cassette (GD532-L) in TK6 cells; experiment: FLuc genotoxicity assay: TK6 cells with GADD45α-FLuc (GD532-L) expression cassette; details: for detection as genotoxic with FLuc at the 48 hour endpoint: FLuc measured 8-48 hours after treatment, FIG. 4
Source text: The reagents for the FLuc assay were originally taken from the article Wettey F R, Jackson A P. Luciferase Reporter Assay. In: Reviews and Protocols in DT40 Research. […] The reagents and their concentrations are listed below. The pH of both mixes is adjusted to pH 7.8 in order to maximise the light output from luciferase.
It was decided to directly lyse the TK6 cells in the GreenScreen HC assay medium as to pellet and wash the cells would add additional steps to the protocol and therefore increase variability into the data. […] The solution of this combined lysis and assay mix (L&A buffer) is shown below.
The final concentration listed above is the concentration of the reagents after the L&A buffer has been combined with the GreenScreen HC assay media. The final concentration of the reagents is fixed and based on the information from the Wettey and Jackson protocol. The FLuc assay as it is currently performed relies on the addition of 40 μl of L&A buffer to 120 μl of GreenScreen HC assay buffer. Therefore, the initial concentration of the reagents in the L&A buffer has to be four times greater than the desired final concentration. The L&A buffer should be pH 8.0 as when the L&A buffer is combined with the GreenScreen HC assay medium (pH 7.2) this give a final pH of ˜7.8.
The preparation of pEP-GD532-GLuc is described in the accompanying examples. Using a similar strategy the inventors also prepared plasmid pEP-GD532-L, in which FLuc is used as the reporter protein. TK6 cells are transfected with a plasmid having a GD532-L or GD532-GLuc expression cassette by electroporation and clones bearing the reporter plasmids are selected.
The inventors wished to determine which of the GLuc and FLuc reporter proteins were most suitable for use in a genotoxicity assay. To determine this, they performed a series of experiments in which cells having the GD532-L or GD532-GLuc expression cassette were exposed to a test compound, and the activity of GLuc and FLuc measured and compared to the standard GADD45α-GFP expression cassette.
FLuc cells were combined with a several known genotoxins and non-genotoxins. FLuc expression was measured at 8, 16, 24, 32, 40 and 48 hours after treatment.

[3] = system: GD532-GLuc reporter in GLuc-T01 cells with S9 liver extract; experiment: S9 metabolic activation GLuc assay with thiazole orange cell number estimation; details: TO cell number estimation, threshold 1.5, FIG. 7B
Description: In an S9-incorporating assay, GLuc-T01 cells are exposed to the test compound in the presence of the S9 extract in a mixture with enzyme co-factors (for example, glucose-6-phosphate (2.5 mM) and β-nicotinamide adenine dinucleotide phosphate (0.5 mM)). The S9 extract is normally used at a final concentration of 1% (v/v) in the assay microplate. […] The conditions of an S9-incorporating assay (for example, time of exposure and type of S9—animal species, chemical induction of hepatic enzymes etc.) may be varied according to experimental requirements.
The cell stain used in the adapted protocol is thiazole orange (TO) which is a cyanine dye that binds to nucleic acids. The binding of TO to DNA and RNA greatly enhances its fluorescence intensity, allowing for its detection without the need to wash away background, unbound TO.
The method requires GLuc-T01 cells to be lysed to allow access to the DNA of all cells present in the microplate well.
In the microplate, the final concentration of TO is 15 μM and for Triton-X100 it is 1% (v/v).
Where the assay includes S9 liver extracts, the genotoxic threshold is set at a relative GLuc induction of 1.5 (i.e. an 50% increase).

[4] = system: GADD45α-GFP expression cassette in TK6 cells; experiment: GADD45α-GFP reporter assay (GreenScreen HC); type: cell-based, human; details: FIG. 3, 24 hour timeframe
Description: Studying FIG. 3 allows for the construction of a number of hypotheses regarding the stability of the reporter proteins and how this will affect the GreenScreen HC assay. The FLuc protein has been reported to have a half-life within cells of ˜3 hours. In comparison, GFP has been reported to have a half-life within cells of ˜26 hours. In this respect GFP can be considered to give more of a cumulative measure of GADD45α induction whilst FLuc will report only on recent GADD45 induction.

[5] = TK6 with GD532-GLuc, 48 hour endpoint
[6] = lowest test compound concentration that produces a relative GLuc induction greater than the 1.8 threshold

| Structure (SMILES) | GLuc Genotox Result [1] | GLuc Genotox LEC ([1]; human, 48 h) [µg/mL] | other results |
| --- | --- | --- | --- |
| Nc1ncn([C@@H]2O[C@H](CO)[C@@H](O)[C@H]2O)c(=O)n1 [5-Azacytidine] | +++ | 0.38 |  |
| O=c1[nH]cc(F)c(=O)[nH]1 [5-Fluorouracul] |  |  | detection as genotoxic with FLuc at the 48 hour endpoint [2]: would not have been detected as genotoxic; genotoxicity outcome in the GLuc assay (in words) [1, 5]: correctly identified; GLuc Genotox LEC [1, 6]: 0.63 µg/mL |
| Nc1cc2c3ccccc3ccc2c2ccccc12 [6-Aminochrysene] |  |  | detection of pro-genotoxin in S9 GLuc assay [3]: detected |
| C[C@@]1(CO)[C@H](O)CC[C@@]2(C)[C@H]1CC[C@H]1C[C@@H]3C[C@@]12CC[C@]3(O)CO [Aphidicolin] |  |  | GLuc Genotox LEC [1, 6]: 0.13 µg/mL |
| CCCCNC(=O)n1c(NC(=O)OC)nc2ccccc21 [Benomyl] | +++ | 1.81 |  |
| CC[C@@]1(O)C(=O)OCc2c1cc1n(c2=O)Cc2cc3ccccc3nc2-1 [Camptothecin] |  |  | GLuc Genotox LEC [1, 6]: 0.08 µg/mL |
| COc1cc2c(c(OC)c1OC)-c1ccc(OC)c(=O)cc1[C@@H](NC(C)=O)CC2 [Colchicine] |  |  | detection as genotoxic with FLuc at the 48 hour endpoint [2]: would not have been detected as genotoxic; genotoxicity outcome in the GLuc assay (in words) [1, 5]: correctly identified |
| COc1cc([C@@H]2c3cc4c(cc3[C@@H](O[C@@H]3O[C@@H]5CO[C@@H](C)O[C@H]5[C@H](O)[C@H]3O)[C@H]3COC(=O)[C@H]23)OCO4)cc(OC)c1O [Etoposide] | +++ |  | genotoxicity outcome in the GLuc assay (in words) [1]: positive |
| COC1=CC(=O)C[C@@H](C)[C@]12Oc1c(Cl)c(OC)cc(OC)c1C2=O [Griseofulvin] | +++ |  |  |
| OO [Hydrogen Peroxide] | +++ | 5.00 |  |
| NC(=O)NO [Hydroxyurea] |  | 4.75 |  |
| COS(C)(=O)=O [Methyl methanesulfonate] | +++ | 6.25 |  |
| CN(N=O)C(N)=O [N-Nitroso-N-methylurea] |  |  | test concentration at which the highest relative induction is seen ([2]; FLuc reporter, FIG. 3, 24 hour timeframe): 32 µg/mL; concentrations that cause significant cell death ([2]; TK6 reporter cells, FIG. 3, explains decrease in FLuc signal): greater than 32 μg/ml; GLuc Genotox LEC [1, 6]: 8.05 µg/mL; concentration at which GADD45α induction (GFP signal) peaks [4]: at least 258 μg/ml |
| CC(=O)O[C@H]1C(=O)[C@@]2(C)[C@H]([C@H](OC(=O)c3ccccc3)[C@]3(O)C[C@H](OC(=O)[C@H](O)[C@@H](NC(=O)c4ccccc4)c4ccccc4)C(C)=C1C3(C)C)[C@]1(OC(C)=O)CO[C@@H]1C[C@@H]2O [Paclitaxel (Taxol), Paclitaxel] | +++ | 0.03 |  |
| CCc1nc(N)nc(N)c1-c1ccc(Cl)cc1 [Pyrimethamine] | +++ | 0.39 |  |
| CC[C@]1(O)C[C@H]2CN(CCc3c([nH]c4ccccc34)[C@@](C(=O)OC)(c3cc4c(cc3OC)N(C=O)[C@H]3[C@@](O)(C(=O)OC)[C@H](OC(C)=O)[C@]5(CC)C=CCN6CC[C@]43[C@@H]65)C2)C1 [Vincristine Sulphate] | +++ | 0.0008 |  |
| OCCO [ethylene glycol] |  |  | genotoxicity outcome in the GLuc assay (in words) [1, 5]: correctly identified |
